Data reported in paper PMC7713230, “Upconversion NIR-II fluorophores for mitochondria-targeted cancer imaging and photothermal therapy” (Nature Communications, 2020).

Experiments:
[1] = test system: mitochondria of 143B cells; experiment: Mitochondrial colocalization by confocal laser scanning microscopy; assay type: cell-based, human; conditions: concentrations lower than 10 nM, same experimental conditions
Experimental: […] Scale bar: 10 μm. Results in (a–f) are representative of three independent experiments.
143B (50,000 cells) were seeded in round discs and incubated in 1 mL of DMEM medium (pH = 7.4) containing 10% FBS for 24 h. After replacing the medium with 1 mL of fresh medium, 3k-PEG, H4-PEG, and H4-PEG-PT were added, respectively, and the cells were allowed to incubate for 6 h. After removing the medium and subsequently washing with PBS buffer (pH = 7.4) thrice, mitotracker green was added to stain the mitochondria for 30 min. The cells were viewed under a FV1200 CLSM (Olympus) and Leica SPE.

143B cells [2] = experiment: Detection of ATP level; assay type: cell-based, human; conditions: CCCP 40 μM 6 h, positive control, control = 100%
Experimental: (§1) 20 mm confocal dishes, and cultured for 12 h at a density of 1×10^5 cells/well. Then, 200 µL of H4-PEG-PT (64 µM) was introduced into the confocal dishes. After 7 h incubation, 143B and HepG2 cells were washed twice with PBS, stained with Hoechst staining kit in PBS for 20 min. The tumor cell samples were immediately examined by an inverted Zeiss Axiovert 200 fluorescence microscopy at a 20× objective, using a high-pressure mercury lamp as an excitation source.
(§2) 143B cells (6×103) were incubated in 96 wells plate at 37 °C for 12 h. Then, cells were treated with 64 μM H4-PEG-PT or 40 μM CCCP for 6 h and irradiated by an 808 nm laser for 3 min each well. After irradiation, ATP level was immediately determined by an ATP determination kit (cat. no. A22066) from Thermo Fisher Scientific with 1% Triton X 100 water solution for cell permeabilization. After 10 min incubation, the luminescence intensity was then detected using a microplate reader (TECAN, Infinite M200 […]
(§3) Detection of mitochondrial membrane potential by JC-1 assay
(§4) 143B cells (6×103) were incubated in 96 wells plate for 12 h. Then, cells were treated with H4-PEG-PT (64 μM), or CCCP (40 μM) for 6 h and irradiated by an 808 nm laser for 3 min. […] Fluorescence intensity was then detected using a microplate reader (TECAN, Infinite M200 Pro) with excitation at 485 nm (green) or 535 nm (red) and emissions at 535 nm (green) or 595 nm (red). […]

143B cells [3] = experiment: Mitochondrial membrane potential by JC-1 assay; assay type: cell-based, human; conditions: CCCP 40 μM 6 h, positive control, control = 100%
Experimental: as §1, §2, §3, §4

[4] = test system: osteosarcoma cell lines (e.g., 143B cells); conditions: cited from earlier work
From the text: Osteosarcoma is the third most common malignant tumor and accounts for more than 60% of all malignant bone tumors in children and adolescents. Surgical excision of all primary and metastatic tumors remains the essential strategy behind osteosarcoma treatment. However, current diagnostic tools allow detection of only 8–15% of bone or lung metastatic patients[52],[53]. Thus, it is urgent to develop new theranostic strategies for early diagnosis, therapy, and monitoring responses to osteosarcoma therapies[54],[55]. The oligopeptide PPSHTPT (PT) was first designed to mimic the properties of th ...

CN1/C(=C/C=C/c2n(Cc3ccc(CCl)cc3)c3cc(Cl)c(Cl)cc3[n+]2Cc2ccc(CCl)cc2)Oc2ccccc21 [Mitotracker Green]
fluorescent intensity in mitochondrial imaging [1]: too weak to be detected

N#CC(C#N)=NNc1cccc(Cl)c1 [CCCP, carbonyl cyanide m-chlorophenylhydrazone]
cellular ATP level (143B cells [2]): ~ 78%
ratio of J-aggregates to monomers (143B cells [3]): 63%

PPSHTPT [osteosarcoma-targeting oligopeptide PPSHTPT, mimics osteocalcin]
affinity and specificity for osteosarcoma cell lines [4]: high affinity and specificity
